Like-named read-outs stand apart in the source and are kept apart here. One block for each molecule: values may come before it. Peptide text beside a SMILES is read from it.
How the values were obtained:
[1] = molecular target: T1, human GIP R (Homo sapiens, UniProt P48546); assay: cAMP induction in HEK293 cells expressing human GIP R (AlphaScreen cAMP kit); type: cell-based; details: read-out: GIP R (EC50 in nM)
T1 construct: expressed in transfected cells
T1 sequence (P48546 22-466): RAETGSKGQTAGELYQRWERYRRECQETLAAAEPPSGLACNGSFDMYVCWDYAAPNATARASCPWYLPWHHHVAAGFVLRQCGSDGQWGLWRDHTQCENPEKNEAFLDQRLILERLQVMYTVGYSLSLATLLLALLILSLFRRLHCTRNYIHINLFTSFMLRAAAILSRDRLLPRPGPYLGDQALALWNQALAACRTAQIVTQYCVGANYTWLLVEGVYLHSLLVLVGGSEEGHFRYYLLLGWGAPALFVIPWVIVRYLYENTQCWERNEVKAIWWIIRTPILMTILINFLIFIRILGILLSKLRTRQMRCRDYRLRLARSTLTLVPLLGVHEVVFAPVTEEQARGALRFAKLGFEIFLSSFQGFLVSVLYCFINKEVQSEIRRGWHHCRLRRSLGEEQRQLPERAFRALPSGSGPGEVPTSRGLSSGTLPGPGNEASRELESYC
Procedure: Briefly, HEK293 cells expressing the human GIP R, GLP-1 R or GCG R (stable cell lines generated through transfection of the cDNA for human GIP R, GLP-1 R or GCG R and selection of stable clones) were seeded at 30,000 cells/well in 96-well microtiter plates coated with 0.01% poly-L-lysine, and grown for 1 day in culture in 200 μl growth medium (DMEM, 10% FCS, Penicillin (100 IU/ml), Streptomycin (100 μg/ml)). On the day of analysis, growth medium was removed and the cells were washed once with 150 μl Tyrode's buffer (Tyrode's Salts (9.6 g/l), 10 mM HEPES, pH 7.4). […] The Assay buffer was removed and cells are lysed in 80 μl Lysis buffer (0.1% w/v BSA, 5 mM HEPES, 0.3% v/v Tween-20) per well. From each well 10 μl of lysed cells were transferred to a 384-well plate and mixed with 15 μl bead-mix (1 Unit/15 μl anti-cAMP Acceptor Beads, 1 Unit/15 μl Donor Beads, and 1 Unit/15 μl Biotinylated cAMP in Assay Buffer). The plates were mixed and incubated in the dark for an hour at room temperature before measuring using an Envision™ plate reader (Perkin-Elmer).
The resulting cAMP curves were plotted as absolute cAMP concentrations (nM) over log (test compound concentration) and analyzed using the curve fitting program XLfit.
Parameters calculated to describe both the potency as well as the agonistic activity of each test compound on the receptors were:
EC50, a concentration resulting in a half-maximal elevation of cAMP levels, reflecting the potency of the test compound.

[2] = molecular target: T2, human GLP-1 R (Homo sapiens, UniProt P43220); assay: cAMP induction in HEK293 cells expressing human GLP-1 R (AlphaScreen cAMP kit); type: cell-based; details: average EC50, cAMP, HEK293 cells expressing human GLP-1 R, read-out: GLP1 R (EC50 in nM)
T2 construct: expressed in transfected cells

[3] = molecular target: T3, human GCG R (Homo sapiens, UniProt P47871); assay: cAMP induction in HEK293 cells expressing human GCG R (AlphaScreen cAMP kit); type: cell-based; details: Table 2; average EC50, cAMP, HEK293 cells expressing human GCG R; read-out: GCG R (EC50 in nM)
T3 construct: expressed in transfected cells

[4] = in vivo; parameters: species or system C57BL/6J mice; details: male, C57BL/6J, mouse, iv, 200 nmol/kg
From the text: Pharmacokinetics of Selected Compounds in Mice Method C57BL/6J mice (males with a body weight of approximately 25 g) were given a single intravenous (i.v.) bolus of each peptide to be tested. […] Blood samples were drawn by sublingual bleeding. The dosing vehicle was a phosphate buffer containing mannitol (pH 7.5). At each sampling time point, samples from two mice were drawn, i.e. 16 mice were included for each compound. The mice were euthanized immediately after blood sampling by cervical dislocation. Plasma samples were analyzed after solid phase extraction (SPE) or precipitation by liquid chromatography mass spectrometry (LC-MS/MS). Mean plasma concentrations were used for calculation of the pharmacokinetic parameters using the non-compartmental approach in Phoenix WinNonlin 6.3. Plasma terminal elimination half-life (T½) was determined as […] where λz is the magnitude of the slope of the log linear regression of the log concentration versus time profile during the terminal phase.

[5] = molecular target: human GIP receptor (human) (UniProt P48546); assay: cell-based or functional assay
[6] = molecular target: human glucagon-like peptide 1 receptor (human) (UniProt P43220); assay: cell-based or functional assay
[7] = molecular target: human GIP receptor (human) (UniProt P48546); assay: cell-based or functional assay; remark: listed apart in the source
[8] = molecular target: human glucagon receptor (human) (UniProt P47871); assay: cell-based or functional assay
[9] = molecular target: human glucagon-like peptide 1 receptor (human) (UniProt P43220); assay: cell-based or functional assay; remark: listed apart in the source
[10] = Table 2b (most comprehensive data), average EC50, cAMP
[11] = Table 2b (most comprehensive data)

T2 sequence (P43220 24-463): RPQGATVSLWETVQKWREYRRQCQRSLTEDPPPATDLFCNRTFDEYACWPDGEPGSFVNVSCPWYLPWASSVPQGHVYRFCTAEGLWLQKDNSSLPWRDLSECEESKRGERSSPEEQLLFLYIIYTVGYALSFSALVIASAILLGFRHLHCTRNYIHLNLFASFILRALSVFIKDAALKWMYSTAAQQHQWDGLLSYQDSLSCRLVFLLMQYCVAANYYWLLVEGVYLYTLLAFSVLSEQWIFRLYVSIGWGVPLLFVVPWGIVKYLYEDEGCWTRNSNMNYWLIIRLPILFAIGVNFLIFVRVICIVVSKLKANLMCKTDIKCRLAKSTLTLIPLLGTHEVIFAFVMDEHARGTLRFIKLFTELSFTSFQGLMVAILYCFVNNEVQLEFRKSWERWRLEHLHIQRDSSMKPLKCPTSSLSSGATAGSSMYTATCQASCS
T3 sequence (P47871 26-477): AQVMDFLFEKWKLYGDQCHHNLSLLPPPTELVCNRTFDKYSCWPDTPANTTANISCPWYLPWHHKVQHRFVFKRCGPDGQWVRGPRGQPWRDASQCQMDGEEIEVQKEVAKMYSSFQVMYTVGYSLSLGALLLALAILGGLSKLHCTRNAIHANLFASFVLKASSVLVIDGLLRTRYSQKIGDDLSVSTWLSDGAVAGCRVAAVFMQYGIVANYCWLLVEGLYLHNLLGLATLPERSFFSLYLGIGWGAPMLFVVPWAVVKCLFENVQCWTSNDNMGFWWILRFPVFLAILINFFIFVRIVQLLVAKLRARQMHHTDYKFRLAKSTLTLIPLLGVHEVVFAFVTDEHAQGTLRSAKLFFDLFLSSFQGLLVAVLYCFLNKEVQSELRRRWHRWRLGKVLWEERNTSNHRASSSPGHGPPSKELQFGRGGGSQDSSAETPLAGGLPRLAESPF
Sequence of human glucagon-like peptide 1 receptor (human) (P43220 24-463): as the sequence (P43220 24-463) above
Sequence of human glucagon receptor (human) (P47871 26-477): as the sequence (P47871 26-477) above

Molecule: CCCCCCCCCCCCCCCC(=O)N[C@@H](CCC(=O)NCCCC[C@H](NC(=O)[C@H](CCCCN)NC(=O)[C@H](CCC(=O)O)NC(=O)[C@H](CC(C)C)NC(=O)[C@H](Cc1ccc(O)cc1)NC(=O)[C@@H](NC(=O)[C@H](CO)NC(=O)[C@H](Cc1ccc(O)cc1)NC(=O)[C@H](CC(=O)O)NC(=O)[C@H](CO)NC(=O)[C@@H](NC(=O)[C@H](Cc1ccccc1)NC(=O)[C@@H](NC(=O)CNC(=O)[C@H](CCC(N)=O)NC(=O)C(C)(C)NC(=O)[C@@H](N)Cc1ccc(O)cc1)[C@@H](C)O)[C@@H](C)O)[C@@H](C)CC)C(=O)N[C@@H](C)C(=O)N[C@@H](C)C(=O)N[C@@H](CCCCN)C(=O)N[C@@H](CCC(=O)O)C(=O)N[C@@H](Cc1ccccc1)C(=O)N[C@H](C(=O)N[C@@H](CCC(=O)O)C(=O)N[C@@H](Cc1c[nH]c2ccccc12)C(=O)N[C@@H](CC(C)C)C(=O)N[C@@H](CC(C)C)C(=O)N[C@@H](CO)C(=O)N[C@@H](C)C(=O)NCC(=O)N1CCC[C@H]1C(=O)N[C@@H](CO)C(=O)N[C@@H](CO)C(=O)NCC(=O)N[C@@H](C)C(=O)N1CCC[C@H]1C(=O)N1CCC[C@H]1C(=O)N1CCC[C@H]1C(=O)N[C@@H](CO)C(N)=O)C(C)C)C(=O)O [Compound 32] (HELM PEPTIDE1{Y.[Aib].Q.G.T.F.T.S.D.Y.S.I.Y.L.E.K.K.A.A.K.E.F.V.E.W.L.L.S.A.G.P.S.S.G.A.P.P.P.S.[am]}|PEPTIDE2{[CCCCCCCCCCCCCCCC(=O)[*:2]].[gGlu]}$PEPTIDE1,PEPTIDE2,17:R3-2:R2$$$V2.0)
- EC50 ([1]; Table 2, average EC50, cAMP): 0.044 nM
- EC50 [1, 10]: 0.015 nM
- EC50 ([2]; Table 2): 0.015 nM
- EC50 [2, 11]: 0.15 nM
- EC50 [3]: 0.15 nM
- half-life [4]: 4.1 h

Molecule: CCCCCCCCCCCCCCCC(=O)N[C@@H](CCC(=O)NCCCC[C@H](NC(=O)[C@H](CCC(=O)O)NC(=O)[C@H](CC(=O)O)NC(=O)[C@H](CC(C)C)NC(=O)[C@H](Cc1ccc(O)cc1)NC(=O)[C@@H](NC(=O)[C@H](CO)NC(=O)[C@H](Cc1ccc(O)cc1)NC(=O)[C@H](CC(=O)O)NC(=O)[C@H](CO)NC(=O)[C@@H](NC(=O)[C@H](Cc1ccccc1)NC(=O)[C@@H](NC(=O)CNC(=O)[C@H](CCC(N)=O)NC(=O)C(C)(C)NC(=O)[C@@H](N)Cc1ccc(O)cc1)[C@@H](C)O)[C@@H](C)O)[C@@H](C)CC)C(=O)N[C@@H](C)C(=O)N[C@@H](C)C(=O)N[C@@H](Cc1c[nH]cn1)C(=O)N[C@@H](CC(=O)O)C(=O)N[C@@H](Cc1ccccc1)C(=O)N[C@H](C(=O)N[C@@H](CCC(=O)O)C(=O)N[C@@H](Cc1c[nH]c2ccccc12)C(=O)N[C@@H](CC(C)C)C(=O)N[C@@H](CC(C)C)C(=O)N[C@@H](CO)C(=O)N[C@@H](C)C(N)=O)C(C)C)C(=O)O [Compound 28] (HELM PEPTIDE1{Y.[Aib].Q.G.T.F.T.S.D.Y.S.I.Y.L.D.E.K.A.A.H.D.F.V.E.W.L.L.S.A.[am]}|PEPTIDE2{[CCCCCCCCCCCCCCCC(=O)[*:2]].[gGlu]}$PEPTIDE1,PEPTIDE2,17:R3-2:R2$$$V2.0)
- EC50 ([1]; Table 2, average EC50, cAMP): 0.054 nM
- EC50 [1, 10]: 0.058 nM
- EC50 ([2]; Table 2): 0.058 nM
- EC50 [2, 11]: 0.16 nM
- EC50 [3]: 0.16 nM
- half-life [4]: 7.8 h

- EC50 (cAMP induction) [5]: 0.025 nM
- EC50 (cAMP induction) [6]: 0.016 nM
- EC50 (cAMP induction) [7]: 0.014 nM
- EC50 (cAMP induction) [8]: 0.058 nM
- EC50 (cAMP induction) [9]: 0.058 nM
B1: Compound 15 (peptide)
peptide: YXQGTFTSDYSIYLEKKAAHDFVEWLLSA
HELM: PEPTIDE1{Y.[Aib].Q.G.T.F.T.S.D.Y.S.I.Y.L.E.K.K.A.A.H.D.F.V.E.W.L.L.S.A.[am]}$$$$V2.0
SMILES: CC[C@H](C)[C@H](NC(=O)[C@H](CO)NC(=O)[C@H](Cc1ccc(O)cc1)NC(=O)[C@H](CC(=O)O)NC(=O)[C@H](CO)NC(=O)[C@@H](NC(=O)[C@H](Cc1ccccc1)NC(=O)[C@@H](NC(=O)CNC(=O)[C@H](CCC(N)=O)NC(=O)C(C)(C)NC(=O)[C@@H](N)Cc1ccc(O)cc1)[C@@H](C)O)[C@@H](C)O)C(=O)N[C@@H](Cc1ccc(O)cc1)C(=O)N[C@@H](CC(C)C)C(=O)N[C@@H](CCC(=O)O)C(=O)N[C@@H](CCCCN)C(=O)N[C@@H](CCCCN)C(=O)N[C@@H](C)C(=O)N[C@@H](C)C(=O)N[C@@H](Cc1c[nH]cn1)C(=O)N[C@@H](CC(=O)O)C(=O)N[C@@H](Cc1ccccc1)C(=O)N[C@H](C(=O)N[C@@H](CCC(=O)O)C(=O)N[C@@H](Cc1c[nH]c2ccccc12)C(=O)N[C@@H](CC(C)C)C(=O)N[C@@H](CC(C)C)C(=O)N[C@@H](CO)C(=O)N[C@@H](C)C(N)=O)C(C)C

From patent publication US10131702B2, “Glucagon-GLP-1-GIP triple agonist compounds” (priority 2013, dated 2018)
